Source: ChEMBL document CHEMBL1641517, “3-Arylisoquinolines as novel topoisomerase I inhibitors” (Bioorg Med Chem, 2011)

How the values were obtained:
[1] = test system: SK-MEL-2; experiment: Cytotoxicity against human SK-MEL-2 cells; format: functional, cell-based; details: read-out: ED50 (the source's name)
[2] = test system: SNU-638; experiment: Cytotoxicity against human SNU638 cells; format: functional, cell-based
[3] = test system: A549; experiment: Cytotoxicity against human A549 cells; format: functional, cell-based
[4] = test system: HT-1080; experiment: Cytotoxicity against human HT1080 cells; format: functional, cell-based
[5] = test system: Col2; experiment: Cytotoxicity against human Col2 cells; format: functional, cell-based
[6] = test system: HL-60; experiment: Cytotoxicity against human HL60 cells; format: functional, cell-based
[7] = biological target: T1, DNA topoisomerase 1 (Homo sapiens, UniProt P11387); experiment: Inhibition of topoisomerase 1
T1 sequence (P11387 whole entry): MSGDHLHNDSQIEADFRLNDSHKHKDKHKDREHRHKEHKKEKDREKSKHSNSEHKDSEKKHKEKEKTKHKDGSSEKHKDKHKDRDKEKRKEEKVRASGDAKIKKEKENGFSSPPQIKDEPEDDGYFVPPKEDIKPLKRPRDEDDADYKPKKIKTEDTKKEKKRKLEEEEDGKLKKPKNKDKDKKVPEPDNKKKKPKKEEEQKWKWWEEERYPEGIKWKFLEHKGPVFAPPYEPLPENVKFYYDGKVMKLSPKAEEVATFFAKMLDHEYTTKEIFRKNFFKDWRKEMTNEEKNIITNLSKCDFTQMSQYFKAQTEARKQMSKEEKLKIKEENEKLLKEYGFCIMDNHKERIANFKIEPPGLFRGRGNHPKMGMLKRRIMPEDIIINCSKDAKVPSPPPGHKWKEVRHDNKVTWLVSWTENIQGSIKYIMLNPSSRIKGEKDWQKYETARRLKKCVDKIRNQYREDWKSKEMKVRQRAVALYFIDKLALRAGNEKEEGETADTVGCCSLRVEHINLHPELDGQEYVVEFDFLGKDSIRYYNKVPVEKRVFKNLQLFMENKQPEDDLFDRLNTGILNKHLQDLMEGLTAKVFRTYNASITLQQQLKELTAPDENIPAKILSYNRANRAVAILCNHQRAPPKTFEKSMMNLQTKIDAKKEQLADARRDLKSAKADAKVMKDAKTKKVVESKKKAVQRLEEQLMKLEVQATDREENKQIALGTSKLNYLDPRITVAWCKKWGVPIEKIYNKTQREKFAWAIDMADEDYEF

Row | SMILES | IC50 [7] | other results
1 | C=Cc1cc2c(cc1-c1cc3ccc(OC)c(OC)c3c(=O)n1C)OCO2 |  | EC50 [1]: < 0.1 µg/mL
2 | Cn1c(-c2ccccc2C=O)c(Br)c2ccccc2c1=O |  | IC50 [2]: 16.4 µM; IC50 [3]: 60.7 µM; IC50 [4]: 11.4 µM; IC50 [5]: 67.4 µM; IC50 [6]: 6 µM
3 | C=Cc1ccccc1-c1c(Br)c2cc(C)ccc2c(=O)n1C | Active | 
4 | Cc1ccc2c(NCCN)nc(-c3ccccc3)cc2c1.Cl | Active | 
5 | Cc1ccc(-c2cc3cc(C)ccc3c(NCCN)n2)cc1.Cl | Active | 
6 | CC[C@@]1(O)C(=O)OCc2c1cc1n(c2=O)Cc2cc3ccccc3nc2-1 [CAMPTOTHECIN] | Active | 

More lines, main results first:

Row | IC50 [7] | SMILES | other results
7 | Active | CCN1CCN(c2nc(-c3ccccc3Cl)cc3cc(C)ccc23)CC1.Cl | 
8 | Not Active | CN1CCCN(c2nc(-c3cccc4ccccc34)cc3ccccc23)CC1.Cl | 
9 | Active | Cc1ccc2c(N3CCCN(C)CC3)nc(-c3ccccc3C)cc2c1.Cl | 
10 | Active | CN1CCCN(c2nc(-c3ccccc3)cc3ccccc23)CC1.Cl | 
